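In this assay, cells in 96-well plates receive the compound at five concentrations for 48 hours. Endpoints are linearly interpolated between the surrounding concentrations. Definition used: TGI = concentration required for complete inhibition of growth.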 *1 amine or outer side, *2 acyl side, *3 side chain or, on linkers, in order; H or OH if unused. Where a SMILES comes first, the peptide text is derived from it. Bridges are numbered along the chain shown (N, C = ends). Roman numbers before positions name the chains, in order. [ ]: non-standard residue; d: D form. Actinocin(9to1) = Cc1c2oc3c(C)ccc(C(=O)[*:1])c3nc-2c(C(=O)[*:2])c(N)c1=O; NMeV = CN[CH](C(=O)O)C(C)C; Sar = CNCC(=O)O
Assays:
Experiment in all cases: inhibition of tumour cell growth, NCI panel, 48 h
[1] = test system: 786-0 renal
[2] = test system: A549 NSCLC
[3] = test system: BT-549 breast
[4] = test system: CCRF-CEM leukemia
[5] = test system: COLO 205 colon
[6] = test system: HCT-116 colon
[7] = test system: HS 578T breast
[8] = test system: HT29 colon
[9] = test system: KM12 colon
[10] = test system: MALME-3M melanoma
[11] = test system: MDA-MB-435
[12] = test system: NCI-H226 lung
[13] = test system: OVCAR-3 ovarian
[14] = test system: SNB-19 CNS
[15] = test system: SR leukemia
[16] = test system: U251 CNS
[17] = test system: OVCAR-4 ovarian

Structure (SMILES)	TGI [1] [µM]	TGI [2] [µM]	TGI [3] [µM]	TGI [4] [µM]	TGI [5] [µM]	TGI [6] [µM]	TGI [7] [µM]	TGI [8] [µM]	TGI [9] [µM]	TGI [10] [µM]	TGI [11] [µM]	TGI [12] [µM]	TGI [13] [µM]	TGI [14] [µM]	TGI [15] [µM]	TGI [16] [µM]	TGI [17] [µM]
CCOC(=O)/C(C#N)=C/c1coc2cc(C)cc(C)c2c1=O	> 100	> 100	> 100	> 100	> 100	> 100	> 100	> 100	> 100	> 100	> 100	> 100	> 100	> 100	> 100	> 100	
CON(C)C(=O)C(C)N(Cc1ccccc1)Cc1ccccc1 (stereo unspecified)	> 100	> 100	> 100	> 100		> 100	> 100	> 100	> 100	> 100	> 100	> 100	> 100	> 100	> 100	> 100	
O=C1/C(=C/c2ccco2)NC(=S)N1CN1CCCCC1	> 100	> 100		> 100	> 100	> 100	> 100	> 100	> 100	> 100	> 100	> 100	> 100	> 100	> 100	> 100	86
CCOC(=O)C12OC(OCC)(CC1(OCC)OCC)C1(CC1)C2=O (stereo unspecified)	> 100	> 100	> 100	> 100	> 100	> 100		> 100	> 100	> 100	> 100	> 100	> 100	> 100		> 100	> 100
Cc1cn(C2OC(CO[Si](C)(C)C(C)(C)C)C(N(C)O[Si](C)(C)C(C)(C)C)C2[Se]c2ccccc2)c(=O)[nH]c1=O (stereo unspecified)	9.29	49.5		> 100	> 100	19.9	7.58	16.8	16.2	29.4	21	21.7	19.9	32.2	> 100	24.5	8.58
CCOC(=O)CCCSCCCC(=O)CCCSCCCC(=O)OCC	> 100	> 100	> 100	> 100	> 100	> 100		> 100	> 100		> 100		> 100	> 100	> 100	> 100	> 100
COc1ccc(S(=O)(=O)n2c3c(c4ccccc42)[C@@H]2[C@@H](CCCN2C(=O)CS(=O)c2ccc(C)cc2)[C@H](Cl)C3)cc1 (stereo partly specified)	> 100	> 100	> 100	> 100	> 100	> 100	> 100	> 100	> 100	> 100	> 100	> 100	> 100	> 100	> 100	> 100	
Cc1c2oc3c(C)ccc(C(=O)NC4C(=O)NC(C(C)C)C(=O)N5CCCC5C(=O)N(C)CC(=O)N(C)C(C(C)C)C(=O)OC4C)c3nc-2c(C(=O)NC2C(=O)NC(C(C)C)C(=O)N3CCCC3C(=O)N(C)CC(=O)N(C)C(C(C)C)C(=O)OC2C)c(N)c1=O (stereo unspecified) (I: TVP[Sar][NMeV] / II: TVP[Sar][NMeV]; ester I:1-I:C, II:1-II:C; linker I:N-II:N via Actinocin(9to1); configuration not given here)	> 1	> 0.867	0.0292	0.0033	0.00299	> 1	0.00439	0.00207	0.019	0.0145	0.0125		0.00907	> 0.35			0.00187
COc1ccc(C2=CC(C(C)=C(C(N)=O)C(N)=O)C=C(c3ccc(Br)cc3)C2)c(OC)c1 (stereo unspecified)	> 100	> 100	> 100	> 100	> 100	> 100	> 100	> 100	> 100		> 100	> 100	> 100	> 100	> 100	> 100	> 100
O=C1/C(=C\c2ccc(Cl)cc2Cl)Sc2scc(-c3ccc(O)c(O)c3)[n+]21	31.6	44.1	46.7	39.4	40.5	29.8	> 100	32.6	33.9		57.7	35.4	23.2	48.8		25.5	35.8
CCCCCCc1cc2cc(-c3cn4ccsc4n3)c(=O)oc2cc1O	> 100	> 100	> 100	> 100	> 100	> 100	> 77	> 100	> 100		> 27.5	> 100	> 100	> 100	> 100	> 100	> 100
NC(Cc1ccccc1)C(=O)NC(Cc1ccccc1)NC(=O)C(Cc1c[nH]c2ccccc12)C(=O)O (stereo unspecified)	> 100	> 100		> 100	> 100	> 100	> 100	> 100	> 100	> 100	> 100	> 100	> 100	> 100	> 100	> 100	> 100
Cc1nn(C(=O)Cc2ccccc2)c2c1C(c1ccccc1)SC(N)=N2 (stereo unspecified)	> 100	> 100	> 100	> 100	> 100	> 100	> 100	> 100	> 100	> 100	> 100	> 100		> 100	> 100		
CC(C)C(NC(=O)Oc1ccccc1)C(=O)NC1c2c(Br)sc(Br)c2C(=O)C1O (stereo unspecified)	> 25	> 25	8.16	15.6	14.4	7.34	> 25	7.71	> 25	15.5	13.1	> 25	8.21	10.4		9.53	6.41
COC(=O)[C@]1(C)CCC[C@@]2(C)C1CC[C@@]13C=C(C(C)C)[C@@H](CC1=O)CC23 (stereo partly specified)	60.7	> 100	63.4	42.4		42	43.9	40.5	> 100		> 100	39	45.9	73.4	30.9	39.2	> 100
CCOC(=O)c1nnn(CCCCO)c1C(=O)OCC	> 100	> 100	> 100	> 100	> 100	> 100	> 100	> 100	> 100	> 100	> 100	> 100		84.5	> 100	> 100	> 100
COC(=O)c1ccc(Cc2cc(Cc3ccc(C(=O)OC)cc3)cc(Cc3ccc(C(=O)OC)cc3)c2)cc1	> 25	> 25	> 25			> 25	> 25	> 25	> 25	> 25	> 25	> 25	> 25	> 25	> 25	> 25	> 25
CCOC(=O)C(=[N+]=[N-])C(=O)CN1C(=O)c2ccccc2C1=O	> 100	> 100	> 100		> 100	> 100	> 100	> 100			> 100		> 100	> 100		> 100	> 100
Cc1ccc(-[n+]2cc([O-])on2)cc1	> 100	> 100	> 100	> 100		> 100	> 100	> 100	> 100	> 100	> 100	> 100	> 100	> 100	> 100	> 100	> 100
Cc1ccc(Nc2nc(NNC(=O)Cc3ccccc3)nc(NNC(=O)c3ccncc3)n2)cc1	> 10	> 10	> 10	> 10	> 10		> 10	> 10	> 10	> 10					> 10	> 10	> 10
C/C(=N\NC(N)=S)c1ccc2c(c1)Sc1ccccc1O2	25.7	13.5		> 100	7.28	24.3	> 100	5.83	> 100	> 100	0.95	> 100	4.52	> 100	> 100	11.7	57.1
COc1ccc(C(SCCO)(c2ccccc2)c2ccc(OC)cc2)cc1	29.1	27.3	36.8	40.7	36.2	22.2	> 44.1	29.1	21.5	31.4	20.5	28.6	33.9	22.8		14.8	49.1
CCOC(=O)c1cc(-c2ccc(OC)cc2)c([N+](=O)[O-])n1C	> 10	> 10	> 10	> 10		> 10	> 10	> 10	> 10	> 10	> 10	> 10	> 10	> 10	> 10	> 10	> 10
Nc1ncc2c(n1)-c1ccccc1OC2N1CCCCC1 (stereo unspecified)	> 100	> 100	> 100	> 100	> 100	> 100	> 100	> 100	> 100		> 100	> 100	> 100	> 100	> 100	> 100	> 100
CCOC(=O)c1ccc(-c2cc(C)no2)[nH]1	> 100	> 100	> 100	> 100	> 100	> 100		> 100	> 100	> 100	29.3	> 100	> 100	> 100		> 100	> 100
COc1cc2c(/C=C3/C(=O)Nc4cccc(Cl)c43)c(Cl)[nH]c2cc1C	4.15	6.23	3.67	3.3	4.1	3.19	5.58	3.96	3.72		3.44	7.59	4.29	7.13	2.95	3.99	3.48
O=C(O)Cc1ccc([N+](=O)[O-])cc1[N+](=O)[O-]	> 100	> 100	> 100	> 100	> 100	> 100	> 100	> 100	> 100	> 100	> 100	> 100	> 100	> 100		> 100	> 100
CCN(CC)CCCNC(=O)c1cc(-c2nccn2C)nc2ccccc12	> 100	> 100	> 100	> 100	> 100	> 100		> 100	> 100	> 100	> 100	> 100		> 100		> 100	> 100
